The source of these data is BindingDB's records for doi:10.1021/acs.jmedchem.8b01821 (Rheinische Friedrich-Wilhelms-University of Bonn, 2019).

A short description of data set [1]: Reversal of ABCB1-mediated multidrug resistance in human A2780/ADR cells assessed as potentiation of daunorubicin-induced cytotoxicity incubated for 72 hrs by MTT assay.
A short description of data set [2]: Reversal of ABCG2-mediated multidrug resistance in human MCF-7/MX cells assessed as potentiation of SN-38-induced cytotoxicity incubated for 72 hrs by MTT assay. In general terms: Tetrazolium dyes change colour on reduction, which living cells bring about.
Data set [3] is described as follows: Reversal of ABCG2 (unknown origin)-mediated multidrug resistance in MDCK2 cells co-expressing BCRP (unknown origin) assessed as potentiation of SN-38-induced cytotoxicity incubated for 72 hrs by MTT assay.
Data set [4] can be described thus: Reversal of ABCC1 (unknown origin)-mediated multidrug resistance in MDCK2 cells co-expressing MRP1 (unknown origin) assessed as potentiation of daunorubicin-induced cytotoxicity incubated for 72 hrs by MTT assay.
Data set [5] in a line: Reversal of ABCC1-mediated multidrug resistance in human H69AR cells assessed as potentiation of daunorubicin-induced cytotoxicity incubated for 72 hrs by MTT assay.
The nature of data set [6]: Reversal of ABCB1 (unknown origin)-mediated multidrug resistance in MDCK2 cells co-expressing MDR1 (unknown origin) assessed as potentiation of daunorubicin-induced cytotoxicity incubated for 72 hrs by MTT assay.

As usually defined, the EC50 is the concentration that produces a half-maximal response. As for `CC1CCc2c(sc3nc(-c4cccnc4)nc(N4CCN(C(C(N)=O)c5ccccc5)CC4)c23)C1` (stereo unspecified), the EC50 was 0.748 µM in data set [1]; 2.73 µM in data set [2]; 1.31 µM in data set [3]; 0.728 µM in data set [4]; 2.69 µM in data set [5]; 0.361 µM in data set [6].
